Experimental data published in patent US20080125432A1 (Devgen NV, priority 2004, published 2008).

Legend:
Male mice (NRMI) = experiment: In vivo telemetry ECG recording in mice, intraperitoneal application; details: consecutive dosing i.p. (3-15 μM/kg), n=5
Method: Male mice (NRMI) were anesthetized with a gas mixture of isoflurane, nitrous oxide and oxigen. Leads connected to a telemetry transmitter (TA10EA-F20, DSI, St. Paul, USA) were fixed by suture in the xiphoid and ventral neck region. The telemetry transmitter was placed under the skin on the back. Wounds were closed in layers and the animals were allowed to recover for at least 1 week.
On the day of the experiment the animals receive consecutive doses of vehicle i.p. at 60 min dosing intervals. ECG tracings (12 s duration) was recorded using the Data Sciences A.R.T. system. After completion of the experiment ECGs were analyzed automatically by Data Sciences ECG software (DSI, St. Paul, USA). QT and QRS intervals were measured manually in the stored ECGs. QTc was calculated from the QT interval and the corresponding heart rate using Bazett's formula. Heart rate was taken from the online analysis, given by the DSI Labpro and DSI A.R.T. systems (DSI, St. Paul, USA). Finally, ECG intervals were transferred to an Excel spreadsheet, checked for plausibility, and converted into 15 min averages.

IK1 (Kir2.1) = target: T1, IK1 (Kir2.1) (Homo sapiens, UniProt P63252); experiment: Whole-cell patch clamp in human atrial myocytes: IK1; type: cell-based; details: n = 3 cells
T1 construct: endogenous in cells; host or cells: freshly isolated human atrial myocytes
T1 sequence (P63252 1-427): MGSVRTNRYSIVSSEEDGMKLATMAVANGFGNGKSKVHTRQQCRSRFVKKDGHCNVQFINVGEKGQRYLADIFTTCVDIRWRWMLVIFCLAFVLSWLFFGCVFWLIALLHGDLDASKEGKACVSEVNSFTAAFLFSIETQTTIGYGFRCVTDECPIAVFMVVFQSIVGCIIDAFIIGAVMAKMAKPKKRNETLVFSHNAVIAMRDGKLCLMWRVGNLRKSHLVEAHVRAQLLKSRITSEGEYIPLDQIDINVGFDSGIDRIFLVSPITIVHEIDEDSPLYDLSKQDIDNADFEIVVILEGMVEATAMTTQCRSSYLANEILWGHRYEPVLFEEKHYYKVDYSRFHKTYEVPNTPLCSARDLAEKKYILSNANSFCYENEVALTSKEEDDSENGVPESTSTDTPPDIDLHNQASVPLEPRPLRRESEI
Method: The blocking profile of the compounds of the invention is determined on the following channels of the human atrial myocytes: INa, Ito, Isus and IK1 channel currents.
Human atrial myocytes: Myocytes were prepared from specimens with grossly normal anatomical aspect, excised from hearts of patients with normal P-wave electrocardiogram, undergoing bypass surgery. Human atrial sample were obtained following approval by the ethical committee. […]
Experiments were performed at room temperature (20-25° C.) for INa and at 32-34° C. for Ito, Isus, IK1. Currents were measured using the whole-cell variant of the patch clamp method. […]
After rupture of the cell membrane to enter the whole-cell mode, current amplitude and kinetics were allowed to stabilize for 3-7 min before initiating the experimental procedure. K^+ currents recorded from human atrial myocytes were elicited by a 500 ms pulse to +60 mV from a holding potential of −50 mV for Ito and Isus. Ito was measured as a peak current amplitude whereas Isus as a current present at the end of the 500 ms voltage pulse. In addition, the area under the curve, before and after compound, were measured over the course of the pulse period. […]

COc1ccccc1Nc1nc(C)c(C(=O)N[C@H]2CCC[C@@H]2OCc2ccccc2)s1 [Compound 68, 2-(2-methoxy-phenylamino)-4-methyl-thiazole-5-carboxylic acid (1S,2S)-2-(benzyloxycyclopent-1-yl) amide]
QT and QTc intervals in the mouse ECG (Male mice (NRMI); 60 min dosing intervals): significant, dose-dependent but late onset prolongation | Heart rate (Male mice (NRMI)): minor and not significant decrease | Locomotor activity (Male mice (NRMI)): reproducible rise after each of the subsequent injections | PQ and QRS in the mouse ECG (Male mice (NRMI)): did not show dose-dependent changes | Block at 10 μM in %: IK1 (Kir2.1) (IK1 (Kir2.1)): −2.7 ± 2.0%
